Values of other authors in paper PMC12525602, “Identification of Selective α-Glucosidase Inhibitors via Virtual Screening with Machine Learning” (Molecules, 2025).
Read-outs that look alike come from different tables or passages of the source.

Tested on: α-glucosidase
Settings: cited from earlier work
[1] = activity label of the modeling dataset, Table S5 (1 = active, 0 = inactive)
[2] = Table S5 modeling dataset, activity label 1 = active, 0 = inactive
[3] = activity label of the modeling dataset, sheet Table S5, 1 = active, 0 = inactive
[4] = activity label of the modeling dataset (Table S5), α-glucosidase, 1 = active, 0 = inactive
[5] = activity label in the 300-compound modeling dataset (Table S5), 1 = active, 0 = inactive
[6] = activity label of the 300-compound modeling dataset, Table S5
[7] = activity label of the modeling dataset, Table S5

## CC(C)CCC(=O)C1(O)C(O)=C(C(=O)CC(C)C)C(=O)C1CCC(C)C (centres unmarked) [compound 66]
[1]
  activity: 0

## N#Cc1c(-c2ccc(Cl)cc2)cc(-c2cccnc2)c(C#N)c1N [compound 97]
[2]
  activity: 0

## N#Cc1c(-c2ccc([N+](=O)[O-])cc2)cc(-c2cccnc2)c(C#N)c1N [compound 75]
[1]
  activity: 0

## O=c1c(O)c(-c2ccc(O)c(O)c2)oc2cc(O)cc(O)c12 [compound 289]
[3]
  activity: 1

## N#Cc1c(-c2ccc([N+](=O)[O-])cc2)cc(-c2cccc([N+](=O)[O-])c2)c(C#N)c1N [compound 32]
[4]
  activity: 0

## COc1cccc(C(=O)C2C(O)c3ccccc3S(=O)(=O)N2CC(=O)Nc2cccc(C)c2)c1 (centres unmarked) [compound 196]
[5]
  activity: 1

## N#Cc1ccc2[nH]c(-c3nnc(Nc4ccccc4Cl)s3)cc2c1 [compound 125]
[2]
  activity: 0

## CC(C)=CCSc1nnc(COc2cccc3cccnc23)o1 [compound 86]
[1]
  activity: 0

## CC(C)=CCn1c(=O)oc2c(C(=O)/C=C/c3ccc(O)c(F)c3)cccc21 [compound 293]
[3]
  activity: 1

## CCCCCC/C=C\CCCCCCCC(=O)O [compound 129]
[2]
  activity: 0

## O=c1c(O[C@@H]2O[C@H](CO)[C@@H](O)[C@H](O)[C@H]2O)c(-c2ccc(O)c(O)c2)oc2cc(O)cc(O)c12 [compound 31]
[4]
  activity: 0

## Clc1cccc(Cl)c1-n1cc(CSc2nnc(COc3cccc4cccnc34)o2)nn1 [compound 71]
[1]
  activity: 0

## O=C(/C=C/c1ccc(Cl)cc1)c1cc2ccccc2oc1=O [compound 273]
[6]
  activity: 1

## CC1CCCN(c2ccc(/C=N/Nc3nc(-c4ccc(F)cc4F)cs3)cc2)C1 (centres unmarked) [compound 78]
[1]
  activity: 0

## N#Cc1c(-c2cccnc2)cc(-c2ccsc2)c(C#N)c1N [compound 37]
[4]
  activity: 0

## Brc1cccc(CNc2cccc(-c3nc4ccccc4[nH]3)c2)n1 [compound 265]
[6]
  activity: 1

## Cc1ccc(-c2csc(N/N=C/c3ccc(N4CCC(C)CC4)cc3)n2)cc1 [compound 186]
[5]
  activity: 1

## O=C(COc1c(I)cc(Cl)c2cccnc12)c1ccc([N+](=O)[O-])cc1 [compound 248]
[6]
  activity: 1

## N#Cc1c(-c2cccc(Cl)c2)cc(-c2cccc([N+](=O)[O-])c2)c(C#N)c1N [compound 50]
[1]
  activity: 0

## O=c1c(O)c(-c2ccc(O)cc2)oc2c(O)c(O)cc(O)c12 [compound 219]
[5]
  activity: 1

## O=[N+]([O-])c1ccc(CSc2nnc(COc3cccc4cccnc34)o2)cc1 [compound 89]
[1]
  activity: 0

## Cc1cc2ncc(-c3ccccc3)nc2cc1C [compound 294]
[3]
  activity: 1

## CC1CCN(c2ccc(/C=N/Nc3nc(-c4ccc([N+](=O)[O-])cc4)cs3)cc2)CC1 [compound 67]
[1]
  activity: 0

## O=C1Nc2ccccc2/C1=N/N=C/c1ccc(OCc2cn(Cc3ccccc3)nn2)cc1 [compound 259]
[6]
  activity: 1

## C[C@@H]1O[C@@H](Oc2c(-c3ccc(O)c(O)c3)oc3cc(O)cc(O)c3c2=O)[C@H](O)[C@H](O)[C@H]1O [compound 175]
[7]
  activity: 1

## Cc1ccc(-c2cnc3ccccc3n2)cc1 [compound 257]
[6]
  activity: 1

## Oc1cc(O)cc(-c2cc3cccc(Br)c3o2)c1 [compound 232]
[6]
  activity: 1

## O=C(O)CCCCCCCCCCCCCCCO [compound 160]
[7]
  activity: 1

## COc1cccc(C(=O)C2C(O)c3ccccc3S(=O)(=O)N2CC(=O)Nc2ccc(Br)cc2)c1 (centres unmarked) [compound 202]
[5]
  activity: 1

## O=C(O)C1(O)C[C@@H](O)C(O)[C@H](O)C1 (some centres unmarked) [compound 91]
[2]
  activity: 0

## CCCCCSc1nnc(COc2cccc3cccnc23)o1 [compound 55]
[1]
  activity: 0

## CCC/C=N/N=C(/C)c1ccc([N+](=O)[O-])cc1 [compound 285]
[3]
  activity: 1

## O=C1C(=NN=Cc2ccc(OCc3cn(Cc4ccc(F)cc4)nn3)cc2)c2ccccc2N1c1ccc(Br)cc1 [compound 262]
[6]
  activity: 1

## Cc1ccc(-c2cc(-c3cccnc3)c(C#N)c(N)c2C#N)cc1 [compound 6]
[4]
  activity: 0

## Cc1ccc(-c2cc(-c3ccncc3)c(C#N)c(N)c2C#N)cc1 [compound 35]
[4]
  activity: 0

## O=c1c(O[C@@H]2O[C@H](CO)[C@@H](O)[C@H](O)[C@H]2O)c(-c2ccc(O)c(O)c2)oc2cc(O)cc(O)c12 [compound 159]
[7]
  activity: 1

## O=C(/C=C/c1ccc(O)c(O)c1)c1cccc2[nH]c(=O)oc12 [compound 274]
[6]
  activity: 1

## O=C(NNS(=O)(=O)c1ccc(OC(F)(F)F)cc1)c1cc2cc(F)ccc2[nH]1 [compound 94]
[2]
  activity: 0

## c1ccc(-c2ccc(-c3cnc4ccccc4n3)cc2)cc1 [compound 288]
[3]
  activity: 1

## Clc1cccc(-c2cnc3ccccc3n2)c1 [compound 290]
[3]
  activity: 1

## O=c1c(O[C@@H]2OC[C@H](O)[C@H](O)[C@H]2O)c(-c2ccc(O)c(O)c2)oc2cc(O)cc(O)c12 [compound 104]
[2]
  activity: 0

## O=c1c(OC2OC(CO)C(O)C(O)C2O)c(-c2cc(O)c(O)c(O)c2)oc2cc(O)cc(O)c12 (centres unmarked) [compound 34]
[4]
  activity: 0

## CCCCCCCCCCCCN [compound 44]
[1]
  activity: 0

## O=C(CCc1ccc(O)cc1)c1c(O)cc(O)cc1O[C@@H]1O[C@H](CO)[C@@H](O)[C@H](O)[C@H]1O [compound 192]
[5]
  activity: 1

## Cc1ccc(-c2cc(C(F)(F)F)nn2-c2ccc(S(=O)(=O)NC(=O)c3cccc([N+](=O)[O-])c3)cc2)cc1 [compound 200]
[5]
  activity: 1

## O=c1c(O[C@@H]2O[C@H](CO)[C@H](O)[C@H](O)[C@H]2O)c(-c2ccc(O)cc2)oc2cc(O)cc(O)c12 [compound 65]
[1]
  activity: 0

## O=C1/C(=N\N=C\c2ccc(OCc3cn(Cc4ccccc4F)nn3)cc2)c2ccccc2N1c1ccc(Br)cc1 [compound 148]
[7]
  activity: 0

## COc1cc(/C=C/C(=O)O)ccc1O [compound 183]
[7]
  activity: 1

## N#Cc1c(-c2ccc(Cl)cc2)cc(-c2cccc([N+](=O)[O-])c2)c(C#N)c1N [compound 120]
[2]
  activity: 0

## CC1CCN(c2ccc(/C=N/Nc3nc(-c4ccc(F)cc4F)cs3)cc2)CC1 [compound 84]
[1]
  activity: 0

## O=c1c(O[C@@H]2O[C@H](CO)[C@@H](O)[C@H](O)[C@H]2O)c(-c2ccc(O)cc2)oc2cc(O)cc(O)c12 [compound 41]
[4]
  activity: 0

## Clc1ccc(CSc2nnc(COc3cccc4cccnc34)o2)c(Cl)c1 [compound 111]
[2]
  activity: 0

## Clc1ccc(Cn2cc(CSc3nnc(COc4cccc5cccnc45)o3)nn2)cc1 [compound 73]
[1]
  activity: 0

## CC(C)=CCC1(O)C(O)=C(C(=O)CC(C)C)C(=O)C1(O)C(=O)C=C(C)C (centres unmarked) [compound 130]
[2]
  activity: 0

## O=C(/C=C/c1ccc(O)c(F)c1)c1cccc2[nH]c(=O)oc12 [compound 246]
[6]
  activity: 1

## COc1ccc(/C(CSc2nnc3c(n2)[nH]c2ccccc23)=N\c2nnc(-c3ccc([N+](=O)[O-])cc3)s2)cc1 [compound 217]
[5]
  activity: 1

## COc1cccc(C(=O)C2=C(O)c3ccccc3S(=O)(=O)C2CC(=O)Nc2ccc(Cl)cc2)c1 (centres unmarked) [compound 177]
[7]
  activity: 1

## COC(=O)Cn1c(=O)oc2c(C(=O)/C=C/c3ccc(O)cc3)cccc21 [compound 287]
[3]
  activity: 1

## COc1cc(O)c(CC=C(C)C)c2c1C(=O)CC(c1ccc(O)cc1)O2 (centres unmarked) [compound 179]
[7]
  activity: 1
